Counter-ions that a name gives are not always drawn. Like-named read-outs stand apart in the source and are kept apart here.
System: mice
Experiment: Neuropharmacological Assay (SmartCube): automated behavioral signature of compound-treated mice compared with a database of reference drug classes
Type: in vivo
Settings: for minimal effective dose: Mus musculus, ip; for minimal effective dose / MED (minimal effective dose): i.p., that dose is shown
From the text: Neurosci. 2011 Sep. 9; 5: 103 (doi: 10.3389/fnins.2011.00103) (“Roberds”). As reported in Roberds, because psychiatric diseases generally result from disorders of cell-cell communication or circuitry, intact systems are useful in detecting improvement in disease-relevant endpoints. These endpoints are typically behavioral in nature, often requiring human observation and interpretation. To facilitate testing of multiple compounds for behavioral effects relevant to psychiatric disease, PsychoGenics, Inc. (Tarrytown, NY, “PGI”) developed SmartCube™ an automated system in which behaviors of compound-treated mice are captured by digital video and analyzed with computer algorithms. (D. Brunner et al. Drug Discov. Today 2002, 7:S107-S112). PGI Analytical Systems uses data from SmartCube™ to compare the behavioral signature of a test compound to a database of behavioral signatures obtained using a large set of diverse reference compounds. (The composition of the database as well as validation of the method is further described in Roberds). In this way, the neuropharmacological effects of a test compound can be predicted by similarity to major classes of compounds, such as antipsychotics, anxiolytics and antidepressants.
The SmartCube™ system produces an activity signature indicating the probability that the activity of the test compound at the administered dose matches a given class of neuropharmacological agents. (See, e.g., Roberds, FIGS. 2 and 3). The test compound is simultaneously compared against multiple classes of agents; thus, a separate probability is generated for each behavioral effect measured (e.g., anxiolytic activity, analgesic activity, etc.). In table 2 below, these probabilities are reported for each behavioral effect measured as described in Table 1 below.
Provided compounds were dissolved in a mixture of Pharmasolve™ (N-methyl-2-pyrrolidone), polyethylene glycol and propylene glycol, and were injected i.p. 15 min. before the behavioral test. For each compound, injections were administered at 3 different doses. For each behavioral effect measured, results for the 3.0 mg/kg dose are presented. The potency of many of the compounds in the table was also determined in the SmartCube™ system. Test compounds were routinely examined at dose levels of 0.3, 1, 3 and 10 mg per kg (mpk), although the dose range was increased or decreased, if necessary, to obtain a full dose response curve. A compound's minimal effective dose (MED) is a measure of the compound's potency. The MED was defined as the dose (in mpk) having 45% or more total activity in SmartCube. If only one dose was tested, that dose is shown in the MED column of Table 2 even though the dose is not known to be the MED.

[1] = dose having 45% or more total activity in SmartCube, if only one dose was tested, read-out: MED (minimal effective dose)
[2] = probability that activity matches this class of agents, 3.0 mg/kg i.p., 15 min before test
[3] = SmartCube class probability, 3.0 mg/kg i.p., 15 min before test
[4] = SmartCube probability class, 3.0 mg/kg dose, i.p. 15 min before the behavioral test
[5] = dose having 45% or more total activity in SmartCube, if only one dose was tested, hydrochloride
[6] = probability that activity matches this class of agents, 3.0 mg/kg i.p., 15 min before test, hydrochloride, 3 mg/kg

Structure (SMILES)	AD [2]	AG [2]	AN [2]	AP [2]	AX [2]	CE [2]	HL [2]	MS [2]	PS [2]	SH [2]	UK [2]	MED (minimal effective dose) [5] [mpk]	AX [6]	CE [6]	AD [6]	AP [6]	other results
CNC1CCc2cc(F)sc2C1 (racemic) [Compound 79, 2-fluoro-N-methyl-4,5,6,7-tetrahydrobenzothiophen-6-amine hydrochloride]	++ (≥24%)	ND (^ <4%)	ND (^ <4%)	+ (≥4%)	++ (≥24%)	ND (^ <4%)	ND (^ <4%)	ND (^ <4%)	ND (^ <4%)	ND (^ <4%)	ND (^ <4%)						minimal effective dose [1]: 1 mg/kg
CNC1(C)CCc2cscc2C1 (racemic) [Compound 103, racemic N, 5-dimethyl-6,7-dihydro-4H-2-benzothiophen-5-amine hydrochloride]	ND (^ <4%)	ND (^ <4%)	ND (^ <4%)	ND (^ <4%)	ND (^ <4%)	ND (^ <4%)	ND (^ <4%)	ND (^ <4%)	ND (^ <4%)	ND (^ <4%)	+++ (≥49%)						minimal effective dose [1]: 1 mg/kg
CNC1(C)COc2c(C)csc2C1 (racemic) [Compound 238, N, 3,6-trimethyl-6,7-dihydro-5H-thieno[3,2-b]pyran-6-amine hydrochloride]																	minimal effective dose (minimal effective dose: dose having 45% or more total activity in SmartCube, if only one dose tested, read-out: MED): > 3 mg/kg; AD [3]: ND (^ <4%); AG [3]: ND (^ <4%); AN [3]: ND (^ <4%); AP [3]: ND (^ <4%); AX [3]: ND (^ <4%); CE [3]: ND (^ <4%); HL [3]: ND (^ <4%); MS [3]: ND (^ <4%); PS [3]: ND (^ <4%); SH [3]: ND (^ <4%); UK [3]: ++ (≥24%)
CNC1COc2scc(C(F)(F)F)c2C1 (racemic) [Compound 288, N-methyl-5-(trifluoromethyl)-3,4-dihydro-2H-thieno[2,3-b]pyran-3-amine hydrochloride]																	minimal effective dose (minimal effective dose: dose having 45% or more total activity in SmartCube, if only one dose was tested, read-out: MED): > 3 mg/kg; AD [4]: ND (^ <4%); AG [4]: ND (^ <4%); AN [4]: ND (^ <4%); AP [4]: ND (^ <4%); AX [4]: ND (^ <4%); CE [4]: ND (^ <4%); HL [4]: ND (^ <4%); MS [4]: ND (^ <4%); PS [4]: ND (^ <4%); SH [4]: ND (^ <4%); UK [4]: ND (^ <4%)
CNC1CCc2ccsc2C1.Cl (single isomer, unassigned) [Compound 9, N-methyl-4,5,6,7-tetrahydrobenzothiophen-6-amine hydrochloride]	++ (≥24%)	ND (^ <4%)	ND (^ <4%)	++ (≥24%)				ND (^ <4%)			ND (^ <4%)	0.1	+ (≥4%)	+ (≥4%)			HL [6]: + (≥4%); PS [6]: + (≥4%)
CNC1CCc2ccsc2C1.Cl (single isomer, unassigned) [Compound 10, N-methyl-4,5,6,7-tetrahydrobenzothiophen-6-amine hydrochloride]	++ (≥24%)	ND (^ <4%)	ND (^ <4%)	++ (≥24%)				ND (^ <4%)		ND (^ <4%)	ND (^ <4%)	0.3	ND (^ <4%)	ND (^ <4%)			HL [6]: ND (^ <4%); PS [6]: ND (^ <4%)
CNC1CCc2sccc2C1.Cl (single isomer, unassigned) [Compound 11, N-methyl-4,5,6,7-tetrahydrobenzothiophen-5-amine hydrochloride]		ND (^ <4%)	ND (^ <4%)			ND (^ <4%)	ND (^ <4%)	ND (^ <4%)	ND (^ <4%)	ND (^ <4%)	ND (^ <4%)	0.3	ND (^ <4%)		ND (^ <4%)	++++ (≥74%)	
CNC1CCc2sccc2C1.Cl (single isomer, unassigned) [Compound 12, N-methyl-4,5,6,7-tetrahydrobenzothiophen-5-amine hydrochloride]		ND (^ <4%)	ND (^ <4%)			ND (^ <4%)	ND (^ <4%)	ND (^ <4%)	ND (^ <4%)	ND (^ <4%)	ND (^ <4%)	1.0	++ (≥24%)		++ (≥24%)	+ (≥4%)	
CNC1CCc2cscc2C1.Cl (single isomer, unassigned) [Compound 13, N-methyl-4,5,6,7-tetrahydro-2-benzothiophen-5-amine hydrochloride]		ND (^ <4%)	ND (^ <4%)		+ (≥4%)		ND (^ <4%)	ND (^ <4%)	ND (^ <4%)	ND (^ <4%)	ND (^ <4%)			+ (≥4%)	ND (^ <4%)	+++ (≥49%)	minimal effective dose [1]: 0.3 mg/kg
CNC1CCc2cscc2C1.Cl (single isomer, unassigned) [Compound 14, N-methyl-4,5,6,7-tetrahydro-2-benzothiophen-5-amine hydrochloride]		ND (^ <4%)	ND (^ <4%)		+ (≥4%)		ND (^ <4%)	ND (^ <4%)	ND (^ <4%)	ND (^ <4%)	ND (^ <4%)			ND (^ <4%)	++ (≥24%)	+ (≥4%)	MED (minimal effective dose) (dose having 45% or more total activity in SmartCube, if only one dose was tested): 0.3 mpk
CN(C)C1CCc2ccsc2C1.Cl (single isomer, unassigned) [Compound 15, N,N-dimethyl-4,5,6,7-tetrahydrobenzothiophen-6-amine hydrochloride]	ND (^ <4%)	ND (^ <4%)	ND (^ <4%)				ND (^ <4%)	ND (^ <4%)	ND (^ <4%)	ND (^ <4%)	ND (^ <4%)	0.3	+++ (≥49%)	++ (≥24%)		+ (≥4%)	
CN(C)C1CCc2ccsc2C1.Cl (single isomer, unassigned) [Compound 16, N,N-dimethyl-4,5,6,7-tetrahydrobenzothiophen-6-amine hydrochloride]	ND (^ <4%)	ND (^ <4%)	ND (^ <4%)				ND (^ <4%)	ND (^ <4%)	ND (^ <4%)	ND (^ <4%)	ND (^ <4%)	1.0	++++ (≥74%)	ND (^ <4%)		ND (^ <4%)	
Cl.c1cc2c(s1)CC(N1CCCC1)CC2 (single isomer, unassigned) [Compound 17, 1-(4,5,6,7-tetrahydrobenzothiophen-6-yl)pyrrolidine hydrochloride]		ND (^ <4%)	ND (^ <4%)			ND (^ <4%)	ND (^ <4%)	ND (^ <4%)	ND (^ <4%)	ND (^ <4%)	ND (^ <4%)	1.0	++++ (≥74%)		ND (^ <4%)	+++ (≥49%)	

From patent US20260274814A1, “THIENYL COMPOUNDS FOR THE TREATMENT OF A CENTRAL NERVOUS SYSTEM DISEASE OR DISORDER” (Coreterra Therapeutics, Inc., priority 2023, published 2026)
